Paper PMC11219871, “Epigenetic-based differentiation therapy for Acute Myeloid Leukemia” (Nature Communications, 2024)
Read-outs that look alike come from different tables or passages of the source.

Tests used:
Format in all cases: biochemical
HDAC11 = molecular target: T1, HDAC11 (Homo sapiens, UniProt Q96DB2); experiment: HDAC11 Eurofins assay
T1 sequence (Q96DB2 1-347): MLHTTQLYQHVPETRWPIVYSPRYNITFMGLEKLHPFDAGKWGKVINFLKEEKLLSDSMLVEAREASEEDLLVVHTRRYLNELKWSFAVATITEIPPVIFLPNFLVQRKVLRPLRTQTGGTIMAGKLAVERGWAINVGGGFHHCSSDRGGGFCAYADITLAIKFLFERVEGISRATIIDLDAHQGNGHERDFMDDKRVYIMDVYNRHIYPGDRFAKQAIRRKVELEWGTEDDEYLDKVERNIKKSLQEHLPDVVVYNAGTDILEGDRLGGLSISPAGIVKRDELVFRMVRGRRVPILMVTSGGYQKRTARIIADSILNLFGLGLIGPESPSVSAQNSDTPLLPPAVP

DNMT1 = DNMT1 (Homo sapiens, UniProt P26358); experiment: Epigenetic panel (BPS Bioscience); DNMT1 TR-FRET IC50
Description: DNMT1 and G9a IC50 values were measured using time-resolved fluorescence energy transfer assays, as described previously[18],[25],[26].
Binding experiments were performed in duplicate at a concentration of 10 μM.

HDAC2 = HDAC2 (Homo sapiens, UniProt Q92769); experiment: HDAC enzymatic assay, fluorescence-labeled substrate; conditions: for inhibition at 10 µM: source data of Fig. 1B
Chain of HDAC2 (Q92769 whole entry): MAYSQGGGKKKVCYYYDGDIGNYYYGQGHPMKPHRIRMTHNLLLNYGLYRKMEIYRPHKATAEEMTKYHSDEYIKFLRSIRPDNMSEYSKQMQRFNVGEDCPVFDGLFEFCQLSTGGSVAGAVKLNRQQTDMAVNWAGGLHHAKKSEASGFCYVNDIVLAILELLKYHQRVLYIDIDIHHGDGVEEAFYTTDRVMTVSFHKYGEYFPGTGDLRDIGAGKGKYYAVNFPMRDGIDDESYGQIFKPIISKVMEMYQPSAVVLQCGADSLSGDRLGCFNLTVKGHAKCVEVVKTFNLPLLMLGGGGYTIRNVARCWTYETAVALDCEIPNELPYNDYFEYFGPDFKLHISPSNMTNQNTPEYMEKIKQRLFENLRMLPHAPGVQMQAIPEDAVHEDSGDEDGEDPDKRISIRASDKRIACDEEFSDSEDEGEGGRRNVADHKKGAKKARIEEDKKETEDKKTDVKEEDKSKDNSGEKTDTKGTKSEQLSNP

Chain of DNMT1 (P26358 whole entry): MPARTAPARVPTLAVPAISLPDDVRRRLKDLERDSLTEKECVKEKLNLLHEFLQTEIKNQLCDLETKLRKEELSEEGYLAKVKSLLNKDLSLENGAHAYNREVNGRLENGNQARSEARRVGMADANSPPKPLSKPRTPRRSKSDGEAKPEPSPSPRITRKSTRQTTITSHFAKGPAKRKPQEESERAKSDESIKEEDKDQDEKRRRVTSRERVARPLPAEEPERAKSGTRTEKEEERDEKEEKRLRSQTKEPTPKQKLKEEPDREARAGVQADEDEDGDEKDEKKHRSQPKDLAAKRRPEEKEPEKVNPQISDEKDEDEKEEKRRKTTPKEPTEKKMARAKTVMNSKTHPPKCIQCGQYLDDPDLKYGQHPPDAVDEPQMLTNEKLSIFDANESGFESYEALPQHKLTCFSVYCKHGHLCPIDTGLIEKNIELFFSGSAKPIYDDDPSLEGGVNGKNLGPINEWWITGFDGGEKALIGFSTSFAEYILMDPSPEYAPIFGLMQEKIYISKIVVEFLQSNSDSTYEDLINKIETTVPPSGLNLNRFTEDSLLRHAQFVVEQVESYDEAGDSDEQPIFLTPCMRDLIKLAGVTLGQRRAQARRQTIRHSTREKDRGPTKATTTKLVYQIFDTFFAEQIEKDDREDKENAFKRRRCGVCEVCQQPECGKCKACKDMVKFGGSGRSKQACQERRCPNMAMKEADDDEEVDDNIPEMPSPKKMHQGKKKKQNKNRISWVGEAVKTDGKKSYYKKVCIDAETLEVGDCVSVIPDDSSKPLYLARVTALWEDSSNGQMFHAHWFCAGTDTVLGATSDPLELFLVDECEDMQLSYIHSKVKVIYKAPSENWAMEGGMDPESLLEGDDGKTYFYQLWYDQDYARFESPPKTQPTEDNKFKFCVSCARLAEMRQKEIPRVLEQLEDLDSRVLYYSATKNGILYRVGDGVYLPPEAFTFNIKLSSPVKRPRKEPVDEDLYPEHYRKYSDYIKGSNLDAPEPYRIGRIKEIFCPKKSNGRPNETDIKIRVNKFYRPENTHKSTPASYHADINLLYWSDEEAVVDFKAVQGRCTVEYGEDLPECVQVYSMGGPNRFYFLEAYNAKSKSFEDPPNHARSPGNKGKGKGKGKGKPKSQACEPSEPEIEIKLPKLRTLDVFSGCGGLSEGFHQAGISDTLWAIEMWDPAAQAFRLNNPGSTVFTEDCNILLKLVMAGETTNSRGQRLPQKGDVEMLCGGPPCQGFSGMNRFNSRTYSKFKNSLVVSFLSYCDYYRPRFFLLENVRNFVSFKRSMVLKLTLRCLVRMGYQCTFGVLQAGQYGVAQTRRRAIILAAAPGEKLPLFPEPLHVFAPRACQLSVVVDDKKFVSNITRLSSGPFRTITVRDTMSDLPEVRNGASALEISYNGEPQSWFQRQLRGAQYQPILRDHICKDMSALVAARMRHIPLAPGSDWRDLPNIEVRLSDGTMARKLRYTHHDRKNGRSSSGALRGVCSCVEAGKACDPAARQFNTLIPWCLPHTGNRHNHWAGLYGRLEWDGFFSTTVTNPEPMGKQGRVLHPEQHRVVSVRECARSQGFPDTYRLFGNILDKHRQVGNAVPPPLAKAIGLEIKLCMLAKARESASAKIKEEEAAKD

Compound | IC50 (HDAC11) | inhibition at 10 µM (DNMT1) | IC50 (DNMT1; as printed in Fig. 1B, read-out: IC50) | IC50 (DNMT1; read-out: DNMT1 IC50) | IC50 (HDAC2) | inhibition at 10 µM (HDAC2)
COc1cc2nc(-c3ccc(C)o3)cc(NCC3CCN(c4ncc(C(=O)NO)cn4)CC3)c2cc1OC [CM-444, 2-[4-[[[6,7-dimethoxy-2-(5-methyl-2-furyl)-4-quinolyl]amino]methyl]-1-piperidyl]pyrimidine-5-carbohydroxamic acid] | 140 nM | 96% | 2200 nM | 2160 nM | 51 nM | 90%
COc1cc2nc(-c3cc(C)oc3C)cc(NCC3CCN(c4ncc(C(=O)NO)cn4)CC3)c2cc1OC [CM-1758, 2-[4-[[[2-(2,5-dimethyl-3-furyl)-6,7-dimethoxy-4-quinolyl]amino]methyl] -1-piperidyl]pyrimidine-5-carbohydroxamic acid] | 150 nM | 66% |  | 22600 nM | 31 nM | 90%
